Assay results from patent publication US20100331348A1, “TROPANE DERIVATIVES USEFUL AS PESTICIDES” (SYNGENTA CROP PROTECTION, INC., priority 2007, published 2010).
Read-outs that look alike come from different tables or passages of the source.

Assays:
Aedes aegypti = Aedes aegypti (Yellow fever mosquito) larvae test; type: in vivo; details: 48 h
[1] = system: Puccinia recondita f.sp. tritici; assay: Puccinia recondita f.sp. tritici (wheat brown rust) leaf disk assay; type: in vivo; details: foliar, 216 h, preventive, nine days after inoculation, read-out: control of fungal infection, Puccinia recondita f.sp. tritici
Pyricularia oryzae = assay: whole plant or invertebrate; type: in vivo; details: foliar, 96 h
Plutella xylostella = Plutella xylostella (Diamond back moth) artificial diet test; details: 120 h, read-out: control of Plutella xylostella
[2] = system: Erysiphe graminis f.sp. tritici; assay: Erysiphe graminis f.sp. tritici (wheat powdery mildew) leaf disk assay; type: in vivo; details: Blumeria graminis, foliar, 96 h, preventive, four days after inoculation, read-out: control of fungal infection, Erysiphe graminis fsp. tritici
Phytophthora infestans = assay: whole plant or invertebrate; type: in vivo; details: foliar, 96 h, read-out: control of fungal infection, Phytophthora infestans
[3] = read-out: control of fungal infection, Pyricularia oryzae (at least 60% list)
[4] = read-out: control of fungal infection, Pyricularia oryzae (at least 80% list)

| Structure (SMILES) | pest or weed control at 2 ppm (Aedes aegypti) [%] | pest or weed control at 200 ppm [1] [%] | pest or weed control at 200 ppm (Pyricularia oryzae; [3]) [%] | pest or weed control at 200 ppm (Plutella xylostella) [%] | pest or weed control at 200 ppm [2] [%] | pest or weed control at 200 ppm (Phytophthora infestans) [%] | pest or weed control at 200 ppm (Pyricularia oryzae; [4]) [%] |
| --- | --- | --- | --- | --- | --- | --- | --- |
| Cc1ccc(OC2C[C@H]3CC[C@@H](C2)N3c2ncnc3sccc23)cc1 (stereo partly shown) [Example 1.7] | ≥ 80 | ≥ 80 | – | – | – | – | – |
| Fc1cccc(OC2C[C@H]3CC[C@@H](C2)N3c2ncnc3sccc23)c1F (stereo partly shown) [Example 1.24] | ≥ 80 | ≥ 80 | ≥ 60 | ≥ 80 | – | – | – |
| CCc1ncnc(N2[C@@H]3CC[C@H]2CC(Oc2cccc(F)c2F)C3)c1Cl (stereo partly shown) [Example 1.164] | ≥ 80 | ≥ 80 | – | ≥ 80 | ≥ 80 | – | – |
| CCc1ncnc(N2[C@@H]3CC[C@H]2CC(Oc2ccc(OC)cc2C(C)=O)C3)c1Cl (stereo partly shown) [Example 1.211] | – | – | – | – | – | ≥ 80 | – |
| CC(C)c1ccc(OC2C[C@H]3CC[C@@H](C2)N3c2ncnc3sccc23)cc1 (stereo partly shown) [Example 2.17] | – | – | – | ≥ 80 | ≥ 80 | – | – |
| c1ccc2c(c1)[nH]c1cc(OC3C[C@H]4CC[C@@H](C3)N4c3ncnc4sccc34)ccc12 (stereo partly shown) [Example 2.19] | – | – | – | – | ≥ 80 | ≥ 80 | – |
| c1nc(N2[C@@H]3CC[C@H]2CC(Oc2ccc4c(c2)OCO4)C3)c2ccsc2n1 (stereo partly shown) [Example 2.29] | ≥ 80 | – | – | – | ≥ 80 | – | – |
| Cc1ccc(OC2C[C@H]3CC[C@@H](C2)N3c2ncnc3sccc23)cn1 (stereo partly shown) [Example 2.44] | – | – | – | – | ≥ 80 | ≥ 80 | – |
| CCc1ncnc(N2[C@@H]3CC[C@H]2CC(Oc2ccc(C(C)C)cc2)C3)c1Cl (stereo partly shown) [Example 2.143] | – | – | – | ≥ 80 | – | – | – |
| CCc1ncnc(N2[C@@H]3CC[C@H]2CC(Oc2ccc(C(C)(C)C)cc2)C3)c1Cl (stereo partly shown) [Example 2.147] | – | – | – | ≥ 80 | – | – | – |
| C#CCOc1ccc(C(C)(C)c2ccc(OC3C[C@H]4CC[C@@H](C3)N4c3ncnc4sccc34)cc2)cc1 (stereo partly shown) [Example 2.225] | – | – | – | ≥ 80 | – | – | – |
| CCc1ncnc(N2C3CCC2CC(=CC(=O)N(C)C)C3)c1Cl [Example 3.3] | – | – | – | – | – | ≥ 80 | – |
| CN(C)C(=O)C=C1CC2CCC(C1)N2c1ncnc2sccc12 [Example 3.25] | – | – | – | – | – | ≥ 80 | – |
| COC(=O)C=C1CC2CCC(C1)N2c1ncnc2sccc12 [Example 3.28] | ≥ 80 | ≥ 80 | – | – | – | – | ≥ 80 |
| CCc1ncnc(N2[C@@H]3CC[C@H]2CC(NCc2ccc(Cl)cc2)C3)c1Cl (stereo partly shown) [Example 4.12] | – | – | – | – | – | ≥ 80 | – |
| CCc1ncnc(N2C3CCC2CC(=NOc2ncccn2)C3)c1Cl [Example 5.2] | – | – | – | – | – | ≥ 80 | – |
| CCc1ncnc(N2C3CCC2CC(=NOCc2ccc4ccccc4c2)C3)c1Cl [Example 5.8] | – | ≥ 80 | – | ≥ 80 | ≥ 80 | – | – |
| CCc1ncnc(N2C3CCC2CC(=NOCc2cccc(C)c2)C3)c1Cl [Example 5.12] | ≥ 80 | ≥ 80 | – | ≥ 80 | ≥ 80 | – | – |
| CCc1ncnc(N2C3CCC2CC(=NOCc2cccc(OC)c2)C3)c1Cl [Example 5.15] | ≥ 80 | ≥ 80 | – | – | ≥ 80 | – | – |
| CCc1ncnc(N2C3CCC2CC(=NOCc2cccnc2)C3)c1Cl [Example 5.25] | ≥ 80 | – | – | – | ≥ 80 | – | – |
| CCc1ncnc(N2C3CCC2CC(=NOCc2ccc(C)c(C)c2)C3)c1Cl [Example 5.27] | – | ≥ 80 | – | ≥ 80 | ≥ 80 | – | – |
| CCc1ncnc(N2C3CCC2CC(=NOCc2ccccc2Cl)C3)c1Cl [Example 5.28] | ≥ 80 | ≥ 80 | – | ≥ 80 | ≥ 80 | – | – |
| CCc1ncnc(N2C3CCC2CC(=NOCc2ccccc2Br)C3)c1Cl [Example 5.31] | – | ≥ 80 | – | ≥ 80 | ≥ 80 | – | – |
| CCc1ncnc(N2C3CCC2CC(=NOCc2c(C)cc(C)cc2C)C3)c1Cl [Example 5.33] | – | – | – | ≥ 80 | ≥ 80 | – | – |

| Structure (SMILES) | pest or weed control at 2 ppm (Aedes aegypti) [%] | pest or weed control at 200 ppm [1] [%] | pest or weed control at 200 ppm (Pyricularia oryzae; [3]) [%] | pest or weed control at 200 ppm (Plutella xylostella) [%] | pest or weed control at 200 ppm [2] [%] | pest or weed control at 200 ppm (Phytophthora infestans) [%] | pest or weed control at 200 ppm (Pyricularia oryzae; [4]) [%] |
| --- | --- | --- | --- | --- | --- | --- | --- |
| CCc1ncnc(N2C3CCC2CC(=NOCc2c(Cl)cccc2Cl)C3)c1Cl [Example 5.34] | – | – | – | ≥ 80 | ≥ 80 | – | – |
| CCc1ncnc(N2C3CCC2CC(=NOCc2ccc(C)cc2C)C3)c1Cl [Example 5.36] | ≥ 80 | ≥ 80 | – | ≥ 80 | ≥ 80 | – | – |
| CCc1ncnc(N2C3CCC2CC(=NOCc2ccccc2C#N)C3)c1Cl [Example 5.38] | ≥ 80 | ≥ 80 | ≥ 60 | – | ≥ 80 | – | – |
| CCc1ncnc(N2C3CCC2CC(=NOCc2cccc(C#N)c2)C3)c1Cl [Example 5.44] | ≥ 80 | ≥ 80 | – | ≥ 80 | ≥ 80 | – | – |
| CCc1ncnc(N2C3CCC2CC(=NOCc2ccc(Cl)cc2Cl)C3)c1Cl [Example 5.50] | – | – | – | ≥ 80 | – | – | – |
| CCc1ncnc(N2C3CCC2CC(=NOCc2c(F)cccc2F)C3)c1Cl [Example 5.61] | ≥ 80 | ≥ 80 | ≥ 60 | ≥ 80 | ≥ 80 | – | – |
| CCc1ncnc(N2C3CCC2CC(=NOCc2ccccc2OC(F)F)C3)c1Cl [Example 5.68] | ≥ 80 | ≥ 80 | – | ≥ 80 | ≥ 80 | – | – |
| CCc1ncnc(N2C3CCC2CC(=NOCc2ccccc2C(F)(F)F)C3)c1Cl [Example 5.70] | ≥ 80 | ≥ 80 | – | ≥ 80 | ≥ 80 | – | – |
| CCc1ncnc(N2C3CCC2CC(=NOCc2cccc(C)c2F)C3)c1Cl [Example 5.74] | – | ≥ 80 | – | ≥ 80 | ≥ 80 | – | – |
| CCc1ncnc(N2C3CCC2CC(=NOCc2cccc(Cl)c2F)C3)c1Cl [Example 5.79] | – | ≥ 80 | – | ≥ 80 | ≥ 80 | – | – |
| CCc1ncnc(N2C3CCC2CC(=NOCc2ccc(OC)c(Cl)c2Cl)C3)c1Cl [Example 5.88] | ≥ 80 | ≥ 80 | – | ≥ 80 | ≥ 80 | – | ≥ 80 |
| CCc1ncnc(N2C3CCC2CC(=NOCc2c(F)cccc2Cl)C3)c1Cl [Example 5.90] | ≥ 80 | ≥ 80 | – | – | ≥ 80 | – | – |
| CCc1ncnc(N2C3CCC2CC(=NOCc2ccc(-c4nnn(CC)n4)cc2)C3)c1Cl [Example 5.112] | ≥ 80 | ≥ 80 | – | – | ≥ 80 | – | – |
| c1cc(CON=C2CC3CCC(C2)N3c2ncnc3sccc23)ccn1 [Example 5.131] | ≥ 80 | – | – | – | ≥ 80 | – | – |
| Clc1cccc(Cl)c1CON=C1CC2CCC(C1)N2c1ncnc2sccc12 [Example 5.144] | ≥ 80 | ≥ 80 | – | – | ≥ 80 | – | ≥ 80 |
| COc1cccc(CON=C2CC3CCC(C2)N3c2ncnc3sccc23)c1 [Example 5.164] | ≥ 80 | ≥ 80 | – | ≥ 80 | ≥ 80 | – | – |
| c1ccc(-c2ccccc2CON=C2CC3CCC(C2)N3c2ncnc3sccc23)cc1 [Example 5.177] | – | – | – | – | – | ≥ 80 | – |
| Fc1cccc(CON=C2CC3CCC(C2)N3c2ncnc3sccc23)c1 [Example 5.183] | ≥ 80 | ≥ 80 | – | – | ≥ 80 | – | – |
| FC(F)(F)c1cccc(CON=C2CC3CCC(C2)N3c2ncnc3sccc23)c1 [Example 5.187] | ≥ 80 | ≥ 80 | ≥ 60 | ≥ 80 | ≥ 80 | – | – |
| FC(F)(F)c1ccccc1CON=C1CC2CCC(C1)N2c1ncnc2sccc12 [Example 5.188] | ≥ 80 | ≥ 80 | ≥ 60 | ≥ 80 | ≥ 80 | – | – |
| FC(F)Oc1ccccc1CON=C1CC2CCC(C1)N2c1ncnc2sccc12 [Example 5.202] | ≥ 80 | ≥ 80 | ≥ 60 | – | ≥ 80 | – | – |
| FC(F)Oc1cccc(CON=C2CC3CCC(C2)N3c2ncnc3sccc23)c1 [Example 5.204] | ≥ 80 | ≥ 80 | ≥ 60 | ≥ 80 | ≥ 80 | – | – |
| Fc1cccc(Cl)c1CON=C1CC2CCC(C1)N2c1ncnc2sccc12 [Example 5.213] | ≥ 80 | ≥ 80 | – | ≥ 80 | ≥ 80 | – | – |
| Cc1cccc(CON=C2CC3CCC(C2)N3c2ncnc3sccc23)c1F [Example 5.223] | ≥ 80 | ≥ 80 | – | ≥ 80 | ≥ 80 | – | – |
